Literature values, collected in US20110229902A1, “METHOD FOR DETERMINING THE […] OF FUNGI AND YEASTS, IN PARTICULAR OF A[…]” (STICHTING TER B[…] DE FARMACODYNAMIEK, priority 2008, published 2011).

Key:
Parameters in all cases: key: R = resistant; S = sensitive
[1] = system: Aspergillus fumigatus cyp51A G54W; details: A. fumigatus isolate with cyp51A mutation G54W
[2] = system: Aspergillus fumigatus cyp51A G54X; details: A. fumigatus isolate with cyp51A mutation G54X
[3] = system: Aspergillus fumigatus cyp51A L98H + TR; details: A. fumigatus isolate with cyp51A L98H + TR (tandem repeat in promoter)
[4] = system: Aspergillus fumigatus cyp51A G138C; details: A. fumigatus isolate with cyp51A mutation G138C
[5] = system: Aspergillus fumigatus cyp51A M220X; details: A. fumigatus isolate with cyp51A mutation M220X

Row | SMILES | resistance status (resistant or sensitive) [1] | resistance status (resistant or sensitive) [2] | resistance status (resistant or sensitive) [3] | resistance status (resistant or sensitive) [4] | resistance status (resistant or sensitive) [5]
1 | C[C@@H](c1ncncc1F)[C@](O)(Cn1cncn1)c1ccc(F)cc1F [Voriconazole] | S | S | R | R | S
2 | CC[C@@H]([C@H](C)O)n1ncn(-c2ccc(N3CCN(c4ccc(OC[C@@H]5CO[C@@](Cn6cncn6)(c6ccc(F)cc6F)C5)cc4)CC3)cc2)c1=O [Posaconazole] | R | S | S | S | S
3 | C[C@@H](c1nc(-c2ccc(C#N)cc2)cs1)[C@](O)(Cn1cncn1)c1ccc(F)cc1F [Ravuconazole] | S | S | R | R | S
